{"source": "patent EP2186515A1", "about": "“PHARMACEUTICAL COMPOSITION COMPRISING THE COMBINATION OF AN ANTI-DEPRESSIVE AGENT AND AN ANSIOLYTIC AGENT FOR CONTROL AND TREATMENT OF DEPRESSIVE DISORDERS” (World Trade Import-Export, WTIE A.G., priority 2007, dated 2009)", "key": {"[1]": {"system": "serotonin reuptake process", "conditions": "relative to Sertraline; cited from earlier work"}, "CYP2D6 isoenzyme": {"molecular_target": "CYP2D6 isoenzyme (Homo sapiens, UniProt P10635)", "sequence (P10635 whole entry)": "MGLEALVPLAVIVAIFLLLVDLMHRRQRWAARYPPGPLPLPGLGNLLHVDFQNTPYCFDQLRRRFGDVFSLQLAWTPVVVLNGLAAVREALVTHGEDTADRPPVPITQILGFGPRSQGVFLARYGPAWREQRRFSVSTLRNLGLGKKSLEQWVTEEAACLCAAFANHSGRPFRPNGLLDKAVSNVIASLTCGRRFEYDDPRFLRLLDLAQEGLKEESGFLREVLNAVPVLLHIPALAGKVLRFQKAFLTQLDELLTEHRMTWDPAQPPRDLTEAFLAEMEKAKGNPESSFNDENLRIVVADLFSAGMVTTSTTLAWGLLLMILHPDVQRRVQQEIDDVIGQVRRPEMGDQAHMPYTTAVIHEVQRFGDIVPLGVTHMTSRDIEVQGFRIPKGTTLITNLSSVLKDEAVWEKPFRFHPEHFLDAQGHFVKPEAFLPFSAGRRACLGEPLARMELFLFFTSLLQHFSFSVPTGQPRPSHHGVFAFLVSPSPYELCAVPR", "conditions": "cited from earlier work; for activity over CYP2D6 isoenzyme compared with fluoxetine and its active metabolite: relative to fluoxetine and its active metabolite"}, "[2]": {"conditions": "cited from earlier work"}, "human serum proteins": {"system": "human serum proteins", "conditions": "cited from earlier work"}, "[3]": {"conditions": "human, in vivo, cited from earlier work"}, "clinical": {"assay": "clinical", "conditions": "human, in vivo, po", "text": "We performed a study on 30 healthy volunteer subjects using a double-blind design. Subjects with ages between 18 and 55 years were recruited. Exclusion criteria were: the use of substances with activity in CYP3A4 (quinidines), inhibitors (erythromycin), inducers (carbamazepines); consumption of illegal drugs (cocaine, heroin, tetrahydrocannabinoids); cigarettes, oral contraceptives, pregnancy, nursing, renal or liver disease history, obesity (>30% above ideal weight), abnormal biochemistry (electrolytes, liver or renal function) or hematologic (full count of blood cells).\nAfter medicament delivery in each group, blood samples were taken at 0.5, 1, 1.5, 2, 2.5, 3, 4, 6, 8, 24 y 32 hours."}, "[4]": {"conditions": "in vivo; cited from earlier work"}, "[5]": {"conditions": "metabolites of Alprazolam; cited from earlier work"}}, "data": [{"smiles": "N[C@H]1CC[C@@H](c2ccc(Cl)c(Cl)c2)c2ccccc21", "note": "[DemethylSertraline]", "values": [{"measurement": "activity over serotonin reuptake process compared with unaltered drug", "setting": "[1]", "result": "eight times lower"}, {"measurement": "activity over CYP2D6 isoenzyme compared with fluoxetine and its active metabolite", "setting": "CYP2D6 isoenzyme", "result": "five to ten times lower"}]}, {"smiles": "CN[C@H]1CC[C@@H](c2ccc(Cl)c(Cl)c2)c2ccccc21", "note": "[Sertraline]", "values": [{"measurement": "variation coefficient of plasma concentrations", "setting": "[2]; after delivering fixed doses", "result": 38, "unit": "%"}, {"measurement": "dose recovered in urine and feces", "setting": "[2]; oral administration, after seven days, 10080 min", "result": 88, "unit": "%"}, {"measurement": "Plasma half-life", "setting": "[2]; plasma", "result": "22 to 30", "unit": "h"}, {"measurement": "in vitro inhibition of CYP2D6 isoenzyme", "setting": "CYP2D6 isoenzyme; in vitro", "result": "weak in vitro inhibition"}, {"measurement": "activity over CYP2D6 isoenzyme compared with fluoxetine and its active metabolite", "setting": "CYP2D6 isoenzyme", "result": "five to ten times lower"}, {"measurement": "effect of Sertraline on Alprazolam kinetics", "setting": "the two drugs administered in combination", "result": "does not significantly alter"}]}, {"smiles": "Cc1nnc2n1-c1ccc(Cl)cc1C(c1ccccc1)=NC2", "note": "[Alprazolam]", "values": [{"measurement": "attached to human serum proteins", "setting": "human serum proteins", "result": 80, "unit": "%"}, {"measurement": "time to maximum plasma concentrations", "setting": "[3]; po", "result": "1 to 2", "unit": "h"}, {"measurement": "Plasma clearance half-life, range", "setting": "[3]", "result": "6.3 to 26.9", "unit": "h"}, {"measurement": "AUC(0-inf)", "setting": "clinical", "result": "167 ± 53.1", "unit": "ng·h/mL"}, {"measurement": "Cmax", "setting": "clinical", "result": "12.6 ± 7.5", "unit": "ng/mL"}, {"measurement": "Tmax", "setting": "clinical", "result": "2.6 ± 1.4", "unit": "h"}, {"measurement": "concentrations in steady state related with toxicity", "setting": "[4]", "result": "higher than 60 ng/mL"}, {"measurement": "t1/2 (Clearance half-life)", "setting": "human, in vivo, po", "result": "11.3 ± 2.2", "unit": "h"}]}, {"smiles": "O=C(c1ccccc1)c1ccccc1", "note": "[benzophenone]", "values": [{"measurement": "biological activity compared with therapeutic activity of Alprazolam", "setting": "[5]", "result": "essentially inactive"}]}, {"smiles": "OCc1nnc2n1-c1ccc(Cl)cc1C(c1ccccc1)=NC2", "note": "[alpha-hydroxy-Alprazolam]", "values": [{"measurement": "biological activity compared with therapeutic activity of Alprazolam", "setting": "[5]", "result": "about one half"}]}]}
